{"source": "paper PMC3531872", "about": "(Chemical research in toxicology, 2011)", "key": {"[1]": {"assay": "Plasma clearance of 14C radioactivity in mice", "format": "in vivo, female C57BL/6J mice"}, "[2]": {"system": "S. typhimurium tester strain TA98", "details": "cited from earlier work"}, "[3]": {"biological_target": "T1, Recombinant human P450 1A1 (Homo sapiens, UniProt P04798)", "T1 sequence (P04798 1-512)": "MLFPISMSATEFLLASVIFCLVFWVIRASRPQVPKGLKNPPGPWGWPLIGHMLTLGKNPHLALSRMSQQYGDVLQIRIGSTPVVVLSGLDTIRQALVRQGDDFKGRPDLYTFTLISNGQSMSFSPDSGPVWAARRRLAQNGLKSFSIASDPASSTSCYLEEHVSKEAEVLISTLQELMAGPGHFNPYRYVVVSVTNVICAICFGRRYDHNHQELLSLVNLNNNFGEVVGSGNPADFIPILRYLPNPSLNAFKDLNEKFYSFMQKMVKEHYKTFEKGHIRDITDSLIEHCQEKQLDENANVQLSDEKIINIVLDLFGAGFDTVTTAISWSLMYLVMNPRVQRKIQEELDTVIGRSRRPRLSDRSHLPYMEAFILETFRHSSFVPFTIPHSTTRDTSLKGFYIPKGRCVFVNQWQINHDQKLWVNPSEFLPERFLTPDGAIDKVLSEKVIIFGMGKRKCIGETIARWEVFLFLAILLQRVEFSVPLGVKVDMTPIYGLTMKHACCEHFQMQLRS", "assay": "N- and C-oxidation by recombinant human P450 1A1", "format": "in vitro ADME"}, "[4]": {"biological_target": "T2, Recombinant human P450 1B1 (Homo sapiens, UniProt Q16678)", "T2 sequence (Q16678 1-543)": "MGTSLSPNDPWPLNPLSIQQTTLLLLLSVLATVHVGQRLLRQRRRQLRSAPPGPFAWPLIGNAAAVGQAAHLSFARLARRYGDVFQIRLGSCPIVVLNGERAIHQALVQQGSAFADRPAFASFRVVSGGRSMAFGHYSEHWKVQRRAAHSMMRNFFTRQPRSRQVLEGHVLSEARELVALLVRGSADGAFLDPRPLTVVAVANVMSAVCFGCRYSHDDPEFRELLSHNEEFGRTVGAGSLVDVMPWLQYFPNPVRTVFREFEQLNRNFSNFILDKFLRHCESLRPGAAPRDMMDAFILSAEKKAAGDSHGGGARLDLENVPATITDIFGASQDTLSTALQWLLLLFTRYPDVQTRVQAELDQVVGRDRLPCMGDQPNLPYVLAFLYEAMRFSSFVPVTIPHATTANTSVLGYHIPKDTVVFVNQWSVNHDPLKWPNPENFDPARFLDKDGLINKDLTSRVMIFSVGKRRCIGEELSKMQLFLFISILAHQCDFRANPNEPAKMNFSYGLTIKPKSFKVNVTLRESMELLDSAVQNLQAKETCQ", "assay": "N- and C-oxidation by recombinant human P450 1B1", "format": "in vitro ADME"}, "[5]": {"assay": "N- and C-oxidation with mouse liver microsomes", "format": "in vitro ADME, female C57BL/6J mice", "details": "female, C57BL/6J, 200 μM, pH 7.6"}, "[6]": {"system": "S. typhimurium strain YG1024", "details": "cited from earlier work"}, "[7]": {"system": "liver, pancreas and colorectal DNA", "details": "female, C57BL/6J, mouse, in vivo"}, "[8]": {"assay": "N- and C-oxidation with human liver microsomes", "format": "in vitro ADME", "details": "200 μM, pH 7.6"}, "mouse liver DNA": {"system": "mouse liver DNA", "details": "in vivo"}, "rat liver DNA": {"system": "rat liver DNA", "details": "24 h following oral dosing with MeIQx (10 mg/kg); cited from earlier work"}, "liver DNA": {"system": "liver DNA", "details": "male C57BL/6 mice; 24 h post-treatment; 5 mg/kg; cited from earlier work"}, "[9]": {"system": "liver, pancreas and colorectal DNA", "assay": "In vivo DNA binding"}}, "note": "Like-named read-outs stand apart in the source and are kept apart here.", "data": [{"smiles": "Cc1cnc2cc3nc(N)n(C)c3cc2n1", "note": "[MeIgQx, 2-Amino-1,7-dimethylimidazo[4,5-g]quinoxaline]", "values": [{"measurement": "radioactivity cleared from plasma within 48 h", "setting": "[1]; female, C57BL/6J, mouse, in vivo, 48 h", "value": "greater than 95%"}, {"measurement": "potency in the Ames reversion assay, fold lower than MeIQx", "setting": "[2]", "value": "about 4,000 fold"}, {"measurement": "Estimated C-oxidation rate, HO-MeIg Qx formation", "setting": "[3]; human, 200 μM, pH 7.6", "value": "6.9 ± 2.4", "unit": "nmol/min/100 pmol P450"}, {"measurement": "Estimated N-oxidation rate, HONH-MeIg Qx formation", "setting": "[3]; human, 200 μM, pH 7.6", "value": "14.1 ± 4.9", "unit": "nmol/min/100 pmol P450"}, {"measurement": "rate of MeIgQx N-oxidation by P450 1A1 relative to P450 1A2", "setting": "[3]; human, recombinant enzyme, 200 μM, pH 7.6", "value": "~ 3 fold"}, {"measurement": "Estimated C-oxidation rate, HO-MeIg Qx formation", "setting": "[4]; human, 200 μM, pH 7.6", "value": "2.5 ± 0.3", "unit": "nmol/min/100 pmol P450"}, {"measurement": "Estimated N-oxidation rate, HONH-MeIg Qx formation", "setting": "[4]; human, 200 μM, pH 7.6", "value": "3.9 ± 0.6", "unit": "nmol/min/100 pmol P450"}, {"measurement": "Estimated C-oxidation rate, HO-MeIg Qx formation", "setting": "[5]", "value": "0.5 ± 0.2 nmol/min/mg microsomal protein"}, {"measurement": "Estimated N-oxidation rate, HONH-MeIg Qx formation", "setting": "[5]", "value": "0.3 ± 0.1 nmol/min/mg microsomal protein"}, {"measurement": "genotoxic potency in YG1024 relative to TA98, fold greater", "setting": "[6]", "value": 16, "unit": "fold"}, {"measurement": "mutagenic potency, fold weaker than PhIP", "setting": "[6]", "value": "about 10 fold"}, {"measurement": "CBI in liver at T4 and 24 h", "setting": "[7]", "value": "7 - 28"}, {"measurement": "time of highest level of 14C isotope in colorectal DNA", "setting": "[7]", "value": 24, "unit": "h"}, {"measurement": "Covalent Binding Index, colon", "setting": "[7]; 4 h", "value": "12.0 ± 6.5 (μ mol/mol dNp)/(mmol carcinogen/kg bw)"}, {"measurement": "Covalent Binding Index, liver", "setting": "[7]; 4 h", "value": "21.7 ± 8.6 (μ mol/mol dNp)/(mmol carcinogen/kg bw)"}, {"measurement": "Covalent Binding Index, pancreas", "setting": "[7]; 4 h", "value": "2.4 ± 2.4 (μ mol/mol dNp)/(mmol carcinogen/kg bw)"}, {"measurement": "14C-isotope associated with liver DNA at 24 h, relative to 4 h", "setting": "[7]; 24 h", "value": 33, "unit": "%"}, {"measurement": "14C-isotope associated with pancreas DNA at 24 h, relative to 4 h", "setting": "[7]; 24 h", "value": 44, "unit": "%"}, {"measurement": "Covalent Binding Index, colon", "setting": "[7]; 24 h", "value": "138 ±114 (μ mol/mol dNp)/(mmol carcinogen/kg bw)"}, {"measurement": "Covalent Binding Index, liver", "setting": "[7]; 24 h", "value": "7.0 ± 3.2 (μ mol/mol dNp)/(mmol carcinogen/kg bw)"}, {"measurement": "Covalent Binding Index, pancreas", "setting": "[7]; 24 h", "value": "1.1 ± 0.6 (μ mol/mol dNp)/(mmol carcinogen/kg bw)"}, {"measurement": "14C-isotope associated with liver DNA at 48 h, relative to 4 h", "setting": "[7]; 48 h", "value": 27, "unit": "%"}, {"measurement": "14C-isotope associated with pancreas DNA at 48 h, relative to 4 h", "setting": "[7]; 48 h", "value": 17, "unit": "%"}, {"measurement": "Covalent Binding Index, colon", "setting": "[7]; 48 h", "value": "28.7 ± 18.5 (μ mol/mol dNp)/(mmol carcinogen/kg bw)"}, {"measurement": "Covalent Binding Index, liver", "setting": "[7]; 48 h", "value": "5.8 ± 0.6 (μ mol/mol dNp)/(mmol carcinogen/kg bw)"}, {"measurement": "Covalent Binding Index, pancreas", "setting": "[7]; 48 h", "value": "0.2 ± 0.2 (μ mol/mol dNp)/(mmol carcinogen/kg bw)"}, {"measurement": "Estimated C-oxidation rate, HO-MeIg Qx formation", "setting": "[8]", "value": "0.1 ± 0.01 nmol/min/mg microsomal protein"}, {"measurement": "Estimated N-oxidation rate, HONH-MeIg Qx formation", "setting": "[8]", "value": "0.4 ± 0.02 nmol/min/mg microsomal protein"}, {"measurement": "rate of N-oxidation", "setting": "[8]", "value": 0.4, "unit": "nmol/min/mg protein"}, {"measurement": "potential dA adduct of MeIgQx ([M+H]+ at m/z 463.2)", "setting": "mouse liver DNA", "value": "no peaks were detected above background level"}, {"measurement": "putative dG-C8-MeIgQx adduct, MS^2 or MS^3 scan stages", "setting": "mouse liver DNA", "value": "not detected"}]}, {"smiles": "Cn1c(N)nc2ncc(-c3ccccc3)cc21", "note": "[PhIP, 2-amino-1-methyl-6-phenylimidazo[4,5-b]pyridine, reference compound]", "values": [{"measurement": "mutagenic potency", "setting": "[6]; S. typhimurium YG1024", "value": "3,015 rev/μg"}]}, {"smiles": "Cc1cnc2ccc3c(nc(N)n3C)c2n1", "note": "[MeIQx, 2-Amino-3,8-dimethylimidazo[4,5-f]quinoxaline]", "values": [{"measurement": "radioactivity cleared from plasma within 48 h", "setting": "[1]; gavage, 14C-MeIgQx 9.68 mg/kg or 14C-MeIQx 2.13 mg/kg", "value": "greater than 95%"}, {"measurement": "time of peak plasma levels in radioactivity", "setting": "[1]; gavage, 14C-MeIgQx 9.68 mg/kg or 14C-MeIQx 2.13 mg/kg, time points 4, 24, 48 h", "value": 4, "unit": "h"}, {"measurement": "dA-N^6-MeIQx adduct level relative to dG-C8-MeIQx", "setting": "rat liver DNA", "value": "~ 5%"}, {"measurement": "dG-N^2-MeIQx adduct level relative to dG-C8-MeIQx", "setting": "rat liver DNA", "value": "30 - 50%"}, {"measurement": "[14C]-MeIQx bound to liver DNA", "setting": "liver DNA", "value": "about 20 adducts per 10^8 nucleotides"}, {"measurement": "N-oxidation by P450 1A1 (in words)", "setting": "[3]; recombinant human P450 1A1", "value": "low to not detectable"}, {"measurement": "N-oxidation by P450 1B1 (in words)", "setting": "[4]; recombinant human P450 1B1", "value": "low to not detectable"}, {"measurement": "Covalent Binding Index, colon", "setting": "[9]; Time 4 h", "value": "113 ±119 (μ mol/mol dNp)/(mmol carcinogen/kg bw)"}, {"measurement": "Covalent Binding Index, colon", "setting": "[9]; Time 24 h", "value": "10.4 ± 11.9 (μ mol/mol dNp)/(mmol carcinogen/kg bw)"}, {"measurement": "Covalent Binding Index, colon", "setting": "[9]; Time 48 h", "value": "2.1 ± 0.9 (μ mol/mol dNp)/(mmol carcinogen/kg bw)"}, {"measurement": "Covalent Binding Index, liver", "setting": "[9]; Time 4 h", "value": "27.7 ± 8.3 (μ mol/mol dNp)/(mmol carcinogen/kg bw)"}, {"measurement": "Covalent Binding Index, liver", "setting": "[9]; Time 24 h", "value": "11.5 ± 7.7 (μ mol/mol dNp)/(mmol carcinogen/kg bw)"}, {"measurement": "Covalent Binding Index, liver", "setting": "[9]; Time 48 h", "value": "20.5 ± 8.4 (μ mol/mol dNp)/(mmol carcinogen/kg bw)"}, {"measurement": "Covalent Binding Index, pancreas", "setting": "[9]; Time 4 h", "value": "0.8 ± 0.2 (μ mol/mol dNp)/(mmol carcinogen/kg bw)"}, {"measurement": "Covalent Binding Index, pancreas", "setting": "[9]; Time 24 h", "value": "0.2 ± 0.1 (μ mol/mol dNp)/(mmol carcinogen/kg bw)"}, {"measurement": "Covalent Binding Index, pancreas", "setting": "[9]; Time 48 h", "value": "0.1 ± 0.1 (μ mol/mol dNp)/(mmol carcinogen/kg bw)"}, {"measurement": "time of highest level of 14C isotope in colorectal DNA", "setting": "[9]; colorectal DNA, time points 4, 24, 48 h", "value": 4, "unit": "h"}, {"measurement": "14C-isotope associated with liver DNA at 48 h, relative to 4 h", "setting": "[9]; liver DNA, T 48 h vs 4 h", "value": "up to 74%"}, {"measurement": "total [14C]-MeIQx-DNA adduct formation, based upon AMS measurements", "setting": "[9]; liver, 24 h post treatment, 2.13 mg/kg by gavage", "value": "11.4 ± 7.6 adducts per 10^8 nucleotides"}, {"measurement": "CBI in liver at T4 and 24 h", "setting": "[9]; liver, T4 and 24 h, range over both HAAs", "value": "7 - 28"}, {"measurement": "14C-isotope associated with pancreas DNA at 48 h, relative to 4 h", "setting": "[9]; pancreas DNA, T 48 h vs 4 h", "value": "≤ 25", "unit": "%"}]}]}
